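Results reflect a 48-hour exposure of cells in 96-well plates to compound at five concentrations. GI50 = concentration required for 50% inhibition of growth. TGI: total growth inhibition.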
Legend:
Test in all cases: DTP human tumour cell line panel, 48 h
786-0 renal = system: 786-0 renal
A498 renal = system: A498 renal
A549 NSCLC = system: A549 NSCLC
ACHN renal = system: ACHN renal
BT-549 breast = system: BT-549 breast
CAKI-1 renal = system: CAKI-1 renal
CCRF-CEM leukemia = system: CCRF-CEM leukemia
COLO 205 colon = system: COLO 205 colon
DU-145 prostate = system: DU-145 prostate
EKVX NSCLC = system: EKVX NSCLC
HCC-2998 colon = system: HCC-2998 colon
HCT-116 colon = system: HCT-116 colon
HCT-15 colon = system: HCT-15 colon
HL-60(TB) leukemia = system: HL-60(TB) leukemia
HOP-62 NSCLC = system: HOP-62 NSCLC
HOP-92 NSCLC = system: HOP-92 NSCLC
HS 578T breast = system: HS 578T breast
HT29 colon = system: HT29 colon
IGROV1 ovarian = system: IGROV1 ovarian
K-562 leukemia = system: K-562 leukemia
KM12 colon = system: KM12 colon
LOX IMVI melanoma = system: LOX IMVI melanoma
M14 melanoma = system: M14 melanoma
MALME-3M melanoma = system: MALME-3M melanoma
MCF7 breast = system: MCF7 breast
MDA-MB-231 breast = system: MDA-MB-231 breast
MDA-MB-435 = system: MDA-MB-435
MOLT-4 leukemia = system: MOLT-4 leukemia
NCI-H226 lung = system: NCI-H226 lung
NCI-H23 lung = system: NCI-H23 lung
NCI-H460 lung = system: NCI-H460 lung
NCI-H522 lung = system: NCI-H522 lung
NCI/ADR-RES ovarian = system: NCI/ADR-RES ovarian
OVCAR-3 ovarian = system: OVCAR-3 ovarian
OVCAR-4 ovarian = system: OVCAR-4 ovarian
OVCAR-5 ovarian = system: OVCAR-5 ovarian
OVCAR-8 ovarian = system: OVCAR-8 ovarian
PC-3 prostate = system: PC-3 prostate
RPMI-8226 leukemia = system: RPMI-8226 leukemia
RXF 393 renal = system: RXF 393 renal
SF-268 CNS = system: SF-268 CNS
SF-295 CNS = system: SF-295 CNS
SF-539 CNS = system: SF-539 CNS
SK-MEL-2 melanoma = system: SK-MEL-2 melanoma
SK-MEL-28 melanoma = system: SK-MEL-28 melanoma
SK-MEL-5 melanoma = system: SK-MEL-5 melanoma
SK-OV-3 ovarian = system: SK-OV-3 ovarian
SN12C renal = system: SN12C renal
SNB-19 CNS = system: SNB-19 CNS
SNB-75 CNS = system: SNB-75 CNS
SR leukemia = system: SR leukemia
SW-620 colon = system: SW-620 colon
T-47D breast = system: T-47D breast
TK-10 renal = system: TK-10 renal
U251 CNS = system: U251 CNS
UACC-257 melanoma = system: UACC-257 melanoma
UACC-62 melanoma = system: UACC-62 melanoma
UO-31 renal = system: UO-31 renal

Molecule O=[N+]([O-])c1ccccc1/C=C/C=C1c2ccccc2-c2ccccc21 has a GI50 (786-0 renal) of over 100 µM, a TGI (786-0 renal) of over 100 µM and a GI50 (A498 renal) of over 100 µM. The TGI (A498 renal) was over 100 µM, the GI50 (A549 NSCLC) was over 100 µM and the TGI (A549 NSCLC) was over 100 µM. The GI50 (ACHN renal) was over 100 µM, the TGI (ACHN renal) was over 100 µM and the GI50 (BT-549 breast) was over 100 µM. It also gave a TGI (BT-549 breast) of over 100 µM, a GI50 (CAKI-1 renal) of over 100 µM and a TGI (CAKI-1 renal) of over 100 µM. It also gave a GI50 (CCRF-CEM leukemia) of over 100 µM, a TGI (CCRF-CEM leukemia) of over 100 µM and a GI50 (COLO 205 colon) of over 100 µM. The TGI (COLO 205 colon) was over 100 µM, the GI50 (DU-145 prostate) was over 100 µM and the TGI (DU-145 prostate) was over 100 µM. The GI50 (EKVX NSCLC) was over 100 µM, the TGI (EKVX NSCLC) was over 100 µM and the GI50 (HCC-2998 colon) was over 100 µM. For the same molecule, the TGI (HCC-2998 colon) was over 100 µM, the GI50 (HCT-116 colon) was over 100 µM and the TGI (HCT-116 colon) was over 100 µM. The GI50 (HCT-15 colon) was over 100 µM, the TGI (HCT-15 colon) was over 100 µM and the GI50 (HL-60(TB) leukemia) was over 100 µM. For the same molecule, the TGI (HL-60(TB) leukemia) was over 100 µM, the GI50 (HOP-62 NSCLC) was over 100 µM and the TGI (HOP-62 NSCLC) was over 100 µM. For the same molecule, the GI50 (HOP-92 NSCLC) was over 100 µM, the TGI (HOP-92 NSCLC) was over 100 µM and the GI50 (HS 578T breast) was over 100 µM. For the same molecule, the TGI (HS 578T breast) was over 100 µM, the GI50 (HT29 colon) was over 100 µM and the TGI (HT29 colon) was over 100 µM. It also gave a GI50 (IGROV1 ovarian) of over 100 µM, a TGI (IGROV1 ovarian) of over 100 µM and a GI50 (K-562 leukemia) of over 100 µM. For the same molecule, the TGI (K-562 leukemia) was over 100 µM, the GI50 (KM12 colon) was over 100 µM and the TGI (KM12 colon) was over 100 µM. The GI50 (LOX IMVI melanoma) was over 100 µM, the TGI (LOX IMVI melanoma) was over 100 µM and the GI50 (M14 melanoma) was over 100 µM. It also gave a TGI (M14 melanoma) of over 100 µM, a GI50 (MALME-3M melanoma) of over 100 µM and a TGI (MALME-3M melanoma) of over 100 µM. The GI50 (MCF7 breast) was 31.5 µM, the TGI (MCF7 breast) was over 100 µM and the GI50 (MDA-MB-231 breast) was over 100 µM. The TGI (MDA-MB-231 breast) was over 100 µM, the GI50 (MDA-MB-435) was 12.4 µM and the TGI (MDA-MB-435) was over 100 µM. It also gave a GI50 (MOLT-4 leukemia) of over 100 µM, a TGI (MOLT-4 leukemia) of over 100 µM and a GI50 (NCI-H226 lung) of over 100 µM. It also gave a TGI (NCI-H226 lung) of over 100 µM, a GI50 (NCI-H23 lung) of over 100 µM and a TGI (NCI-H23 lung) of over 100 µM. The GI50 (NCI-H460 lung) was over 100 µM, the TGI (NCI-H460 lung) was over 100 µM and the GI50 (NCI-H522 lung) was over 100 µM. For the same molecule, the TGI (NCI-H522 lung) was over 100 µM, the GI50 (NCI/ADR-RES ovarian) was over 100 µM and the TGI (NCI/ADR-RES ovarian) was over 100 µM. The GI50 (OVCAR-3 ovarian) was over 100 µM, the TGI (OVCAR-3 ovarian) was over 100 µM and the GI50 (OVCAR-4 ovarian) was over 100 µM. The TGI (OVCAR-4 ovarian) was over 100 µM, the GI50 (OVCAR-5 ovarian) was over 100 µM and the TGI (OVCAR-5 ovarian) was over 100 µM. The GI50 (OVCAR-8 ovarian) was over 100 µM, the TGI (OVCAR-8 ovarian) was over 100 µM and the GI50 (PC-3 prostate) was over 100 µM. It also gave a TGI (PC-3 prostate) of over 100 µM, a GI50 (RPMI-8226 leukemia) of over 100 µM and a TGI (RPMI-8226 leukemia) of over 100 µM. It also gave a GI50 (RXF 393 renal) of over 100 µM, a TGI (RXF 393 renal) of over 100 µM and a GI50 (SF-268 CNS) of over 100 µM. For the same molecule, the TGI (SF-268 CNS) was over 100 µM, the GI50 (SF-295 CNS) was over 100 µM and the TGI (SF-295 CNS) was over 100 µM. The GI50 (SF-539 CNS) was over 100 µM, the TGI (SF-539 CNS) was over 100 µM and the GI50 (SK-MEL-2 melanoma) was over 100 µM. It also gave a TGI (SK-MEL-2 melanoma) of over 100 µM, a GI50 (SK-MEL-28 melanoma) of over 100 µM and a TGI (SK-MEL-28 melanoma) of over 100 µM. For the same molecule, the GI50 (SK-MEL-5 melanoma) was over 100 µM, the TGI (SK-MEL-5 melanoma) was over 100 µM and the GI50 (SK-OV-3 ovarian) was over 100 µM. For the same molecule, the TGI (SK-OV-3 ovarian) was over 100 µM, the GI50 (SN12C renal) was over 100 µM and the TGI (SN12C renal) was over 100 µM. For the same molecule, the GI50 (SNB-19 CNS) was over 100 µM, the TGI (SNB-19 CNS) was over 100 µM and the GI50 (SNB-75 CNS) was over 100 µM. For the same molecule, the TGI (SNB-75 CNS) was over 100 µM, the GI50 (SR leukemia) was over 100 µM and the TGI (SR leukemia) was over 100 µM. It also gave a GI50 (SW-620 colon) of over 100 µM, a TGI (SW-620 colon) of over 100 µM and a GI50 (T-47D breast) of over 100 µM. The TGI (T-47D breast) was over 100 µM, the GI50 (TK-10 renal) was over 100 µM and the TGI (TK-10 renal) was over 100 µM. For the same molecule, the GI50 (U251 CNS) was over 100 µM, the TGI (U251 CNS) was over 100 µM and the GI50 (UACC-257 melanoma) was over 100 µM. The TGI (UACC-257 melanoma) was over 100 µM, the GI50 (UACC-62 melanoma) was over 100 µM and the TGI (UACC-62 melanoma) was over 100 µM. It also gave a GI50 (UO-31 renal) of over 100 µM and a TGI (UO-31 renal) of over 100 µM.

Reference: PubChem BioAssay (NCI)
